In patent US12227501B2, “3-amino-2-[2-(acylamino)pyridin-4-yl]-1,5,6,7-tetrahydro-4h-pyrrolo[3,2-c]pyridin-4-one as CSNK1 inhibitors” (Bayer Aktiengesellschaft, priority 2019, dated 2025) one finds IC50 data, which are given here for 4 molecules.

One test addresses human CSNK1A1 (Homo sapiens (Human), UniProt P48729). Kind of test: CSNK1A1 High ATP Assay (ADP-Glo, 1 mM ATP). Type of test: biochemical. The following applies: read-out: CSNK1A1 high ATP assay IC50 [mol/l] (median). The method, boiled down:
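GST-tagged full-length human CSNK1A1 from baculovirus-infected insect cells (typically about 0.4 ng/μL), pre-incubated with compound 15 min at 22 °C. Reaction with biotinylated peptide biotin-Ahx-KRRRAL-pS-VASLPGL at 1 mM ATP. ADP formed read by ADP-Glo luminescence.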

A further test has as its target human CSNK1D (Homo sapiens (Human), UniProt P48730). Kind of test: CSNK1D Assay (ADP-Glo, 1 μM ATP). Type of test: biochemical. The following applies: read-out: CSNK1D IC50 [mol/l] (median). The method in brief:
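GST-tagged full-length human CSNK1D from baculovirus-infected insect cells, typically ~0.5 ng/μL, with biotinylated peptide substrate and 1 μM ATP in HEPES pH 7.5 buffer. Compound is preincubated with enzyme 15 min at 22 °C. ADP formed is quantified by ADP-Glo luminescence.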
(In ADP-Glo the light output rises with the ADP produced.)

pIC50: −log10 of the molar value.

Sequence of human CSNK1A1 (P48729 whole entry): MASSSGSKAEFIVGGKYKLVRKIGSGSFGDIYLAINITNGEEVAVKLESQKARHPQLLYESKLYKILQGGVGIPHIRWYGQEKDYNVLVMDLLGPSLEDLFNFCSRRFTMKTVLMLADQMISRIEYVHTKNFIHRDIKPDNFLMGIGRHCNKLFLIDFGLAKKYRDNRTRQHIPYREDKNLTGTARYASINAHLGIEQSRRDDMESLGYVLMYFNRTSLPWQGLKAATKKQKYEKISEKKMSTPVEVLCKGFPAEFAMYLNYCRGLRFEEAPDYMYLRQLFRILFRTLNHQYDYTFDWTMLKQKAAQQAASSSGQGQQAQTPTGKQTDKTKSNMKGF
Sequence of human CSNK1D (P48730 whole entry): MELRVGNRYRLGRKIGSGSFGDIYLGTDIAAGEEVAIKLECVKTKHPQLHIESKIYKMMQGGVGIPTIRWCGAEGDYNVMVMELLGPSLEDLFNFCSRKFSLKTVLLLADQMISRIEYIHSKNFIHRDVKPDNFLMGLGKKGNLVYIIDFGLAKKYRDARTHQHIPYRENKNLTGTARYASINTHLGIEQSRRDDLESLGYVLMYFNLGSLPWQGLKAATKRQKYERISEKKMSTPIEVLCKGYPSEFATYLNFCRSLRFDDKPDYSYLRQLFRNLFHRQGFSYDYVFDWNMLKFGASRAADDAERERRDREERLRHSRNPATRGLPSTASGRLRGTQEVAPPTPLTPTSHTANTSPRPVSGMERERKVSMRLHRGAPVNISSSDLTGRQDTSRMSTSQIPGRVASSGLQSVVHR

Consider `C[C@H](C(=O)Nc1cc(-c2[nH]c3c(c2Nc2ccccc2)C(=O)N(C)CC3)ccn1)c1ccc(F)cc1` (single isomer, unassigned) [Example 5], for which the pIC50 on human CSNK1A1 is 7.20; on human CSNK1D it was 7.92.

In the case of `C[C@@H](C(=O)Nc1cc(-c2[nH]c3c(c2Nc2ccccc2)C(=O)N(C)CC3)ccn1)c1ccc(F)cc1` (single isomer, unassigned) [Example 6], the pIC50 on human CSNK1A1 is 5.80; at human CSNK1D, 7.30.

Consider `CN1CCc2[nH]c(-c3ccnc(NC(=O)Cc4ccc(F)cc4)c3)c(Nc3ccccc3)c2C1=O` [Example 1, N-[4-(3-anilino-5-methyl-4-oxo-4,5,6,7-tetrahydro-1H-pyrrolo[3,2-c]pyridin-2-yl)pyridin-2-yl]-2-(4-fluorophenyl)acetamide], for which the pIC50 is 7.55 at human CSNK1A1 and 8.25 at human CSNK1D.

As for `CC(C(=O)Nc1cc(-c2[nH]c3c(c2Nc2ccccc2)C(=O)N(C)CC3)ccn1)c1ccc(F)cc1` (centres unmarked) [Example 4, N-[4-(3-anilino-5-methyl-4-oxo-4,5,6,7-tetrahydro-1H-pyrrolo[3,2-c]pyridin-2-yl)pyridin-2-yl]-2-(4-fluorophenyl)propanamide], the pIC50 is 6.94 at human CSNK1A1 and 7.82 at human CSNK1D.
